Measurements taken from patent US7186695B2 (priority 2001, dated 2007).
“Also recorded” adds a separate entry of the source.

Experiments:
[1] = system: adjuvant-induced arthritis; settings: rat, in vivo
[2] = system: adjuvant-induced arthritis, rat ankles; settings: in vivo
[3] = Titration of cysteine with GSAO, DTNB assay; type: binding; settings: cysteine 28 μM, GSAO 0–50 μM, 10 minutes
Procedure: (§1) FIG. 11. Titration of DMP or cysteine with GSAO. DMP (15 μM corresponding to 30 μM thiols) is or cysteine (28 μM) was incubated with GSAO (0–50 μM) for 10 minutes. DTNB (950 μM) was then added and the reactions incubated for a further 10 minutes. The concentration of thiol in the reactions was determined from the absorbance of the TNB dianion at 412 nm.
(§2) A stock solution of DMP (5 μL, 50 μmol) was dissolved in DMSO (995 μL), giving a concentration of 50 mM DMP. A second dilution of the 50 mM DMP stock solution (10 μL) in pH 7.0 buffer (0.1 M HEPES, 0.3 M NaCl, 1 mM EDTA) (990 μL) gave a working solution of 500 ? M DMP. The activity of the arsenical could then be determined by the titration of varying amounts of arsenical against the DMP working solution (10 μL) in a 96-well microbitre plate, with the total volume made up to 195 μL by addition of buffer. After a 10 minute incubation at room temperature, during which time the solutions were agitated on a plate shaker, 5 μL of a 37.9 mM stock solution of DTNB (15 mg) in DMSO (1 mL) was added, and the plate incubated with shaking for another 10 minutes. The absorbance at 412 nm due to the formation of the TNB dianion was measured using a Molecular Devices Thermomax Plus (Palo Alto, Calif.) microplate reader. The extinction coefficient for the TNB dianion at pH 7.0 is 14,150 M^−1cm^−1 at 412 nm (Riddles et al., 1983).

Thioredoxin = target: T1, Thioredoxin (Homo sapiens, UniProt P10599); experiment: Binding of GSAO to thioredoxin active site dithiol, DTNB assay
T1 construct: purchased American Diagnostica, Greenwich, Conn; host or cells: E. coli
T1 sequence (P10599 1-105): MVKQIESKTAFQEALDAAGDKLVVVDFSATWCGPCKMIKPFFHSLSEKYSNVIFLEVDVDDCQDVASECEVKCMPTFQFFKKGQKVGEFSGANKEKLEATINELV
Procedure: FIG. 12. Interaction of GSAO with synthetic. Deptide and protein dithiols. DMP (A) (15 μM), 6,8-thioctic acid (B) ([…]), dithiothreitol (C) (8.5 μM), TrpCysGlyProCysLys (D) (4.6 μM), TrpCysGlyHisCysLys (E) (5.5 μM) or thioredoxin (F) (4.1 μM corresponding to 20.6 μM thiols) was incubated with GSAO (0–56 μM) for 10 minutes. DTNB (950 μM) was then added and the reactions incubated for a further 10 minutes. The concentration of thiol in the reactions was determined from the absorbance of the TNB dianion at 412 nm. The solid lines represent the best non-linear least squares fit of the data to Equation 1 (A to E) or Equation 2 (F) and have been drawn using the parameter estimates in Table 1. The dotted line in part A represents a simulated titration assuming an infinite affinity of GSAO for the dithiol. […]
(§3) A stock solution of DMP (5 μL, 50 μmol) was dissolved in DMSO (995 μL), giving a concentration of 50 mM DMP. […] The activity of the arsenical could then be determined by the titration of varying amounts of arsenical against the DMP working solution (10 μL) in a 96-well microbitre plate, with the total volume made up to 195 μL by addition of buffer. […] The absorbance at 412 nm due to the formation of the TNB dianion was measured using a Molecular Devices Thermomax Plus (Palo Alto, Calif.) microplate reader. […]

[4] = target: T2, TrpCysGlyProCysLys (thioredoxin active site hexapeptide) (Homo sapiens, UniProt P10599); experiment: Binding of GSAO to dithiols, loss of thiols in DTNB assay
T2 construct: purchased Auspep, Parkville, Australia; host or cells: synthetic peptide
Procedure: (§4) FIG. 12. Interaction of GSAO with synthetic. Deptide and protein dithiols. DMP (A) (15 μM), 6,8-thioctic acid (B) ([…]), dithiothreitol (C) (8.5 μM), TrpCysGlyProCysLys (D) (4.6 μM), TrpCysGlyHisCysLys (E) (5.5 μM) or thioredoxin (F) (4.1 μM corresponding to 20.6 μM thiols) was incubated with GSAO (0–56 μM) for 10 minutes. DTNB (950 μM) was then added and the reactions incubated for a further 10 minutes. The concentration of thiol in the reactions was determined from the absorbance of the TNB dianion at 412 nm. The solid lines represent the best non-linear least squares fit of the data to Equation 1 (A to E) or Equation 2 (F) and have been drawn using the parameter estimates in Table 1. The dotted line in part A represents a simulated titration assuming an infinite affinity of GSAO for the dithiol. GSAO bound to both synthetic, peptide and protein dithiols with dissociation constants in the range 130 nM to 1.4 μM.
as §2
(§5) Recombinant human thioredoxin produced in E. coli was from American Diagnostica, Greenwich, Conn. The hexapeptides, TrpCysGlyProCysLys (SEQ ID NO: 1) and TrpCysGiyHisCysLys (SEQ ID NO: 2), were from Auspep, Parkville, Australia.
(§6) Binding of GSAO to dithiols was measured from loss of thiols using the DTNB assay described above. The dissociation constant, Kd, for GSAO binding to dithiols was determined by incubating increasing concentrations of GSAO, I, with a fixed dithiol concentration, [S]T, and measuring the remaining dithiol using DTNB. Note that the concentration of dithiol equals half the TNB concentration. The concentration of dithiol.GSAO complex, SI, as a function of the total GSAO concentration, [I]T, is described by Equation 1 (Hogg and Jackson, 1990), [SI]=0.5.{([S]T+x.[I]T+Kd)−(([S]T+x.[I]T+Kd)^2−4.[S]T.x.[I]T)^0.5} (1) […]

[5] = target: T3, TrpCysGlyHisCysLys (PDI active site hexapeptide) (Homo sapiens, UniProt P07237); experiment: as above
T3 construct: purchased Auspep, Parkville, Australia; host or cells: synthetic peptide
Procedure: as §4, §2, §5, §6

[6] = as above
Procedure: as §1
FIG. 12. Interaction of GSAO with synthetic. Deptide and protein dithiols. DMP (A) (15 μM), 6,8-thioctic acid (B) ([…]), dithiothreitol (C) (8.5 μM), TrpCysGlyProCysLys (D) (4.6 μM), TrpCysGlyHisCysLys (E) (5.5 μM) or thioredoxin (F) (4.1 μM corresponding to 20.6 μM thiols) was incubated with GSAO (0–56 μM) for 10 minutes. […] The concentration of thiol in the reactions was determined from the absorbance of the TNB dianion at 412 nm. […]
as §3
Binding of GSAO to dithiols was measured from loss of thiols using the DTNB assay described above. […]

[7] = Dissociation Constant, ring size 15, errors are 1 SD
[8] = dissociation constant, approximate value

Which results are given for NC(CCC(=O)NC(CSCC(=O)Nc1ccc([As]=O)cc1)C(=O)NCC(=O)O)C(=O)O (stereo not drawn) [GSAO, 4-(N-(S-glutathionylacetyl)amino)-phenylarsenoxide]?
development of arthritis measured by arthritis severity score, gait, paw volume or weight loss [1]: effectively blocked; signs or symptoms of toxicity for the rats [1]: no signs or symptoms of toxicity; weight gain, GSCA vs GSAO treated rats ([1]; 2 mg/kg): no difference in weight gain; pannus formation [2]: significantly reduced; also recorded: little to no pannus formation; periarticular inflammation (density of inflammatory cells) [2]: significantly reduced; also recorded: almost no inflammatory cells; signs of new bone formation (periosteal reaction) [2]: none; interaction of GSAO with cysteine in DTNB titration [3]: any interaction of GSAO with cysteine was displaced by DTNB; Kd (Thioredoxin): 370 ± 180 nM; higher affinity for thioredoxin than for the thioredoxin active site hexapeptide (Thioredoxin; thioredoxin vs TrpCysGlyProCysLys): ~4 fold; Kd [4, 7]: 1420 nM; Kd [4, 8]: ~1000 nM; Kd [5, 7]: 870 ± 270 nM; Kd [5, 8]: ~1000 nM; interaction of GSAO with DMP in DTNB titration ([6]; DMP 15 μM, GSAO 0–50 μM, 10 minutes): bound to DMP and prevented interaction of the dithiol with DTNB; Kd ([6]; ring size 5, errors are 1 SD, read-out: Dissociation Constant): 130 nM
